Results published in ChEMBL document CHEMBL2150986, “Synthesis and biological evaluation of 1-benzylidene-3,4-dihydronaphthalen-2-one as a new class of microtubule-targeting agents” (J Med Chem, 2012).

Key:
Mus musculus [1] = experiment: Toxicity in nude BALB/c mouse xenografted with human HT-29 cells assessed as effect on WBC count at 150 mg/kg, ip qd after 21 days (reference value: 25.38 +/- 0.22 x 10^3 mm'-3); type: organism-based; set-up: dose 150 mg/kg, route intraperitoneal; details: in vivo, 504 h
HCT-116 [2] = experiment: Cell cycle arrest in human HCT116 cells assessed as increase in accumulation at G2/M phase after 24 hrs by FACS flow cytometry; type: functional, cell-based
Mus musculus [3] = experiment: Toxicity in ICR mouse assessed as mortality at 150 to 600 mg/kg, ip administered on day 1; type: organism-based; set-up: dose 150-600 mg/kg, route intraperitoneal; details: in vivo
HT-29 [4] = experiment: Antitumor activity against human HT-29 cells xenografted in nude BALB/c mouse assessed as decrease in tumor volume at 150 mg/kg, ip qd measured on day 21 relative to vehicle-treated control; type: functional; details: route intraperitoneal
HT-29 [5] = experiment: Antitumor activity against human HT-29 cells xenografted in nude BALB/c mouse assessed as decrease in tumor volume at 100 mg/kg, ip qd measured on day 21 relative to vehicle-treated control; type: functional; details: route intraperitoneal
HCT-116 [6] = experiment: Cell cycle arrest in human HCT116 cells assessed as accumulation at G2/M phase at 2 uM after 24 hrs by FACS flow cytometry; type: functional
Mus musculus [7] = experiment: Toxicity in nude BALB/c mouse xenografted with human HT-29 cells assessed as effect on WBC count at 300 mg/kg, ip qd after 21 days (reference value: 25.38 +/- 0.22 x 10^3 mm'-3); type: organism-based; set-up: dose 300 mg/kg, route intraperitoneal; details: in vivo, 504 h
Mus musculus [8] = experiment: Toxicity in nude BALB/c mouse xenografted with human HT-29 cells assessed as change in kidney morphology at 100 to 300 mg/kg, ip qd after 21 days relative to vehicle-treated control; type: organism-based; set-up: dose 100-300 mg/kg, route intraperitoneal; details: in vivo, 504 h
HT-29 [9] = experiment: Antitumor activity against human HT-29 cells xenografted in ip dosed nude BALB/c mouse assessed as decrease in tumor volume administered as qd measured on day 21; type: functional, organism-based
Mus musculus [10] = experiment: Toxicity in nude BALB/c mouse xenografted with human HT-29 cells assessed as effect on lymphocyte count at 150 mg/kg, ip qd after 21 days (reference value: 15.88 +/- 0.41 x 10^3 mm'-3); type: organism-based; set-up: dose 150 mg/kg, route intraperitoneal; details: in vivo, 504 h
Mus musculus [11] = experiment: Toxicity in nude BALB/c mouse xenografted with human HT-29 cells assessed as effect on ALT level at 150 mg/kg, ip qd after 21 days (reference value: 28 +/- 0.4 IU/L); type: organism-based; set-up: dose 150 mg/kg, route intraperitoneal; details: in vivo, 504 h
Mus musculus [12] = experiment: Toxicity in nude BALB/c mouse xenografted with human HT-29 cells assessed as effect on ALT level at 300 mg/kg, ip qd after 21 days (reference value: 28 +/- 0.4 IU/L); type: organism-based; set-up: dose 300 mg/kg, route intraperitoneal; details: in vivo, 504 h
Mus musculus [13] = experiment: Toxicity in nude BALB/c mouse xenografted with human HT-29 cells assessed as change in liver morphology at 100 to 300 mg/kg, ip qd after 21 days relative to vehicle-treated control; type: organism-based; set-up: dose 100-300 mg/kg, route intraperitoneal; details: in vivo, 504 h
Mus musculus [14] = experiment: Toxicity in ICR mouse assessed as body weight loss at 600 mg/kg, ip administered on day 1 measured for 10 days relative to vehicle-treated control; type: organism-based; set-up: dose 600 mg/kg, route intraperitoneal; details: in vivo, 240 h
MDA-MB-435 = experiment: cells; details: Homo sapiens, MDA-MB-435, 72 h
Description: Cytotoxicity against human MDA-MB-435 cells after 72 hrs by MTT assay

ZR-75-30 = experiment: Cytotoxicity against human ZR75-30 cells after 72 hrs by MTT assay; type: functional, cell-based; details: ZR-75-30, 72 h
Mus musculus [15] = experiment: Toxicity in nude BALB/c mouse xenografted with human HT-29 cells assessed as mortality at 100 mg/kg, ip qd after 21 days; type: organism-based; set-up: dose 100 mg/kg, route intraperitoneal; details: in vivo, 504 h
Mus musculus [16] = experiment: Toxicity in nude BALB/c mouse xenografted with human HT-29 cells assessed as mortality at 150 mg/kg, ip qd after 21 days; type: organism-based; set-up: dose 150 mg/kg, route intraperitoneal; details: in vivo, 504 h
Tubulin = Tubulin (Sus scrofa, UniProt P02554+P02550); experiment: Inhibition of porcine brain tubulin assembly measured every 1 min for 60 mins by turbidimetric analysis
Mus musculus [17] = experiment: Toxicity in nude BALB/c mouse xenografted with human HT-29 cells assessed as effect on lymphocyte count at 100 mg/kg, ip qd after 21 days (reference value: 15.88 +/- 0.41 x 10^3 mm'-3); type: organism-based; set-up: dose 100 mg/kg, route intraperitoneal; details: in vivo, 504 h
Mus musculus [18] = experiment: Toxicity in nude BALB/c mouse xenografted with human HT-29 cells assessed as effect on platelet count at 150 mg/kg, ip qd after 21 days (reference value: 1509 +/- 34 x 10^3 mm'-3); type: organism-based; set-up: dose 150 mg/kg, route intraperitoneal; details: in vivo, 504 h
Mus musculus [19] = experiment: Toxicity in nude BALB/c mouse xenografted with human HT-29 cells assessed as effect on ALP level at 150 mg/kg, ip qd after 21 days (reference value: 107.6 +/- 0.8 IU/L); type: organism-based; set-up: dose 150 mg/kg, route intraperitoneal; details: in vivo, 504 h
Mus musculus [20] = experiment: Toxicity in nude BALB/c mouse xenografted with human HT-29 cells assessed as effect on platelet count at 300 mg/kg, ip qd after 21 days (reference value: 1509 +/- 34 x 10^3 mm'-3); type: organism-based; set-up: dose 300 mg/kg, route intraperitoneal; details: in vivo, 504 h
HCT-116 [21] = experiment: Cell cycle arrest in human HCT116 cells assessed as decrease in accumulation at S phase after 24 hrs by FACS flow cytometry; type: functional, cell-based
Mus musculus [22] = experiment: Toxicity in nude BALB/c mouse xenografted with human HT-29 cells assessed as effect on lymphocyte count at 300 mg/kg, ip qd after 21 days (reference value: 15.88 +/- 0.41 x 10^3 mm'-3); type: organism-based; set-up: dose 300 mg/kg, route intraperitoneal; details: in vivo, 504 h
Mus musculus [23] = experiment: Toxicity in nude BALB/c mouse xenografted with human HT-29 cells assessed as effect on ALP level at 100 mg/kg, ip qd after 21 days (reference value: 107.6 +/- 0.8 IU/L); type: organism-based; set-up: dose 100 mg/kg, route intraperitoneal; details: in vivo, 504 h
Mus musculus [24] = experiment: Toxicity in nude BALB/c mouse xenografted with human HT-29 cells assessed as effect on ALP level at 300 mg/kg, ip qd after 21 days (reference value: 107.6 +/- 0.8 IU/L); type: organism-based; set-up: dose 300 mg/kg, route intraperitoneal; details: in vivo, 504 h
K562 = experiment: Cytotoxicity against human K562 cells after 72 hrs by MTT assay; type: functional, cell-based; details: K562, 72 h
HT-29 [25] = experiment: Cytotoxicity against human HT-29 cells after 72 hrs by MTT assay; type: functional, cell-based; details: HT-29, 72 h
Mus musculus [26] = experiment: Toxicity in nude BALB/c mouse xenografted with human HT-29 cells assessed as effect on WBC count at 100 mg/kg, ip qd after 21 days (reference value: 25.38 +/- 0.22 x 10^3 mm'-3); type: organism-based; set-up: dose 100 mg/kg, route intraperitoneal; details: in vivo, 504 h
Mus musculus [27] = experiment: Toxicity in nude BALB/c mouse xenografted with human HT-29 cells assessed as body weight change at 300 mg/kg, ip qd after 21 days (reference value: 2.7 g); type: organism-based; set-up: dose 300 mg/kg, route intraperitoneal; details: in vivo, 504 h
HT-29 [28] = experiment: Antitumor activity against human HT-29 cells xenografted in nude BALB/c mouse assessed as decrease in tumor volume at 300 mg/kg, ip qd measured on day 21 relative to vehicle-treated control; type: functional; details: route intraperitoneal
Mus musculus [29] = experiment: Toxicity in nude BALB/c mouse xenografted with human HT-29 cells assessed as effect on platelet count at 100 mg/kg, ip qd after 21 days (reference value: 1509 +/- 34 x 10^3 mm'-3); type: organism-based; set-up: dose 100 mg/kg, route intraperitoneal; details: in vivo, 504 h
Mus musculus [30] = experiment: Toxicity in nude BALB/c mouse xenografted with human HT-29 cells assessed as mortality at 300 mg/kg, ip qd after 21 days; type: organism-based; set-up: dose 300 mg/kg, route intraperitoneal; details: in vivo, 504 h
CCRF-CEM = experiment: Cytotoxicity against human CEM cells after 72 hrs by MTT assay; type: functional, cell-based
Mus musculus [31] = experiment: Toxicity in nude BALB/c mouse xenografted with human HT-29 cells assessed as change in spleen morphology at 100 to 300 mg/kg, ip qd after 21 days relative to vehicle-treated control; type: organism-based; set-up: dose 100-300 mg/kg, route intraperitoneal; details: in vivo, 504 h
Mus musculus [32] = experiment: Toxicity in nude BALB/c mouse xenografted with human HT-29 cells assessed as body weight change at 150 mg/kg, ip qd after 21 days (reference value: 2.7 g); type: organism-based; set-up: dose 150 mg/kg, route intraperitoneal; details: in vivo, 504 h
HCT-116 [33] = experiment: Cell cycle arrest in human HCT116 cells assessed as decrease in accumulation at G1 phase after 24 hrs by FACS flow cytometry; type: functional, cell-based
Mus musculus [34] = experiment: Toxicity in nude BALB/c mouse xenografted with human HT-29 cells assessed as effect on ALT level at 100 mg/kg, ip qd after 21 days (reference value: 28 +/- 0.4 IU/L); type: organism-based; set-up: dose 100 mg/kg, route intraperitoneal; details: in vivo, 504 h
HCT-116 [35] = experiment: cells; details: Homo sapiens, HCT-116, 72 h
HCT-116 [36] = experiment: Cell cycle arrest in human HCT116 cells assessed as accumulation at G2/M phase at 0.2 uM after 24 hrs by FACS flow cytometry (reference value: 13 %); type: functional
Mus musculus [37] = experiment: Toxicity in nude BALB/c mouse xenografted with human HT-29 cells assessed as body weight change at 100 mg/kg, ip qd after 21 days (reference value: 2.7 g); type: organism-based; set-up: dose 100 mg/kg, route intraperitoneal; details: in vivo, 504 h

COc1ccc2c(c1)CCC(=O)/C2=C/c1cc(OC)c(OC)c(OC)c1
Activity (Mus musculus [1]): 20.18 ×10³ /mm3
Activity (HCT-116 [2]): Dose-dependent effect
Activity (Mus musculus [3]): Non-toxic
T/C (HT-29 [4]): 45%
T/C (HT-29 [5]): 52%
Activity (HCT-116 [6]): 74%
Activity (Mus musculus [7]): 19.96 ×10³ /mm3
Activity (Mus musculus [8]): Non-toxic
Activity (HT-29 [9]): Dose-dependent effect
Activity (Mus musculus [10]): 10.03 ×10³ /mm3
Activity (Mus musculus [11]): 28 IU/L
Activity (Mus musculus [12]): 26 IU/L
Activity (Mus musculus [13]): Non-toxic
Activity (Mus musculus [14]): Non-toxic
IC50 (MDA-MB-435): 1 nM
IC50 (ZR-75-30): 10 nM
Activity (Mus musculus [15]): Non-toxic
Activity (Mus musculus [16]): Non-toxic
IC50 (Tubulin): 3930 nM
Activity (Mus musculus [17]): 11.08 ×10³ /mm3
Activity (Mus musculus [18]): 1375 ×10³ /mm3
Activity (Mus musculus [19]): 116.3 IU/L
Activity (Mus musculus [20]): 1240 ×10³ /mm3
Activity (HCT-116 [21]): Dose-dependent effect
Activity (Mus musculus [22]): 8.87 ×10³ /mm3
Activity (Mus musculus [23]): 112 IU/L
Activity (Mus musculus [24]): 107.6 IU/L
IC50 (K562): 1 nM
IC50 (HT-29 [25]): 10 nM
Activity (Mus musculus [26]): 24.42 ×10³ /mm3
Activity (Mus musculus [27]): 2.6 g
T/C (HT-29 [28]): 34%
Activity (Mus musculus [29]): 1440 ×10³ /mm3
Activity (Mus musculus [30]): Non-toxic
IC50 (CCRF-CEM): 1 nM
Activity (Mus musculus [31]): Non-toxic
Activity (Mus musculus [32]): 3 g
Activity (HCT-116 [33]): Dose-dependent effect
Activity (Mus musculus [34]): 24 IU/L
IC50 (HCT-116 [35]): 100 nM
Activity (HCT-116 [36]): 17%
Activity (Mus musculus [37]): 2.3 g
